Counter-ions that a name gives are not always drawn. Like-named read-outs stand apart in the source and are kept apart here.
How the values were obtained:
[1] = biological target: norepinephrine transporter (UniProt Q9WTR4); assay: Inhibition of [3H]nisoxetine radioligand binding at the norepinephrine transporter
From the text: (§1) Illustrative in vitro assays for binding are described in Boja et al Ann. NY Acad. Sci. 654:282-291 (1992), which is incorporated herein by reference in its entirety. […] Alternatively, the compounds may be analyzed by their ability to inhibit reuptake of a labelled neurotransmitter in a sample, in particular, in synaptosomes.

dopamine transporter [2] = biological target: dopamine transporter (UniProt P23977); type: binding
From the text: as §1

dopamine transporter [3] = type: binding; conditions: ratio of IC50 values, Table II
From the text: as §1

serotonin transporter = biological target: T1, serotonin transporter (Rattus norvegicus, UniProt P31652); assay: Inhibition of [3H]paroxetine radioligand binding at the serotonin transporter
T1 construct: from tissue
From the text: as §1

[4] = read-out: IC50 NE [3H]-nisoxetine, Table II
[5] = read-out: IC50 DA [3H]-WIN 35,428, Table II
[6] = IC50 5-HT [3H]-paroxatine, Table II
[7] = read-out: NEN IC50 for inhibition of radioligand binding, NEN=[3H] nisoxetine
[8] = read-out: DA IC50 for inhibition of radioligand binding, DA=[3H]WIN 35,428
[9] = 5-HT IC50 for inhibition of radioligand binding, 5-HT=[3H] paroxetine
[10] = 5-HT=[3H] paroxetine, read-out: 5-HT IC50 for inhibition of radioligand binding
[11] = read-out: IC50 NE [3H]-nisoxetine, Table IV
[12] = read-out: IC50 DA [3H]-WIN 35,428, Table IV
[13] = IC50 5-HT [3H]-paroxetine, Table IV
[14] = NEN=[3H] nisoxetine, read-out: NEN IC50 for inhibition of radioligand binding

T1 sequence (P31652 whole entry): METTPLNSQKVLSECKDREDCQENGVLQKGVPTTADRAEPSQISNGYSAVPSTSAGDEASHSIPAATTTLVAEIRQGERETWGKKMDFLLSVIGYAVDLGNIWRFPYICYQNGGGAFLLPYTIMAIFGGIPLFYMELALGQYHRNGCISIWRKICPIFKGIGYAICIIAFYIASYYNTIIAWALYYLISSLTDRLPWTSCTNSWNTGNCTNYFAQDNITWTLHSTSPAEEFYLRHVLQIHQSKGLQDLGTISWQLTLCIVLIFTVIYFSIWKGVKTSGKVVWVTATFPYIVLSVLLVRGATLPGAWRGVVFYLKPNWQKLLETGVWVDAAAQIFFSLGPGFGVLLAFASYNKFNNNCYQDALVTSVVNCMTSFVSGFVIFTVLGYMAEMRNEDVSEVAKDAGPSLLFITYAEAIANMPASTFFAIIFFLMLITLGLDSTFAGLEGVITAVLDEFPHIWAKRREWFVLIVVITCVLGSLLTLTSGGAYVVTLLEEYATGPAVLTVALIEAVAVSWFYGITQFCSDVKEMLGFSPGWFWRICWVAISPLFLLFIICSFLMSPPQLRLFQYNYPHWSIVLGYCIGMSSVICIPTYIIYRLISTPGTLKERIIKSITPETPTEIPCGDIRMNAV

Structure (SMILES)	IC50 [1, 7] [nM]	IC50 (dopamine transporter [2]; [8]) [nM]	IC50 (serotonin transporter; [9]) [nM]	IC50 (serotonin transporter; [10]) [nM]	also measured
Cc1ccc([C@H]2C[C@@H]3CC[C@H]([C@H]2c2nn[nH]n2)N3C)cc1 [RTI-157, 3β-(4-Methylphenyl)-tropane-2β-tetrazole Hydrochloride]	–	–	–	–	IC50 [1, 4]: 32500 nM; IC50 (dopamine transporter [2]; [5]): 1560 nM; 5-HT/DA Ratio (dopamine transporter [3]): 28; NE/DA Ratio (dopamine transporter [3]): 21; IC50 (serotonin transporter; [6]): 43600 nM
CC(C)c1noc(C2C(c3ccc(Cl)cc3)CC3CCC2N3C)n1 (stereo not drawn) [RTI-4229-154]	135	6	3460	–	–
Cc1ccc(C2CC3CCC(C2c2cc(C)no2)N3C)cc1.Cl (stereo not drawn) [RTI-4229-171, 3β-(4-Methylphenyl)-2P-(3-methylisoxazol-5-yl)tropane Hydrochloride]	254	0.93	–	3820	IC50 [1, 4]: 254 nM; IC50 (dopamine transporter [2]; [5]): 0.93 nM; 5-HT/DA Ratio (dopamine transporter [3]): 4105; NE/DA Ratio (dopamine transporter [3]): 273; IC50 (serotonin transporter; Table II, read-out: IC50 5-HT [3H]-paroxatine (converted)): 3820 nM
CCc1ccc(C2CC3CCC(N3)C2C(=O)OC)cc1 (stereo not drawn) [RTI-4229-173]	122	49.9	–	8.13	–
Cc1ccc([C@H]2C[C@@H]3CC[C@H]([C@H]2c2cc(-c4ccccc4)no2)N3C)cc1 [RTI-4229-176, 3β-(4-Methylphenyl)-2β-(3-phenylisoxazol-5-yl)tropane Hydrochloride]	398	1.58	5110	–	IC50 [1, 4]: 398 nM; IC50 (dopamine transporter [2]; [5]): 1.58 nM; 5-HT/DA Ratio (dopamine transporter [3]): 3234; NE/DA Ratio (dopamine transporter [3]): 251; IC50 (serotonin transporter; [6]): 5110 nM
CN1C2CCC1C(C(=O)OC1CC1)C(c1ccc(Cl)cc1)C2 (stereo not drawn) [RTI-4229-190]	235	0.96	–	168	–
CN1C2CCC1C(C(=O)OC1CC1)C(c1ccc(I)cc1)C2 (stereo not drawn) [RTI-4229-191]	102	0.61	–	15.5	–
Cc1ccc(C2CC3CCC(C2C(=O)OC2CC2)N3C)cc1 (stereo not drawn) [RTI-4229-193]	544	1.68	–	1070	–
Cc1cccc(OC(=O)C2C(c3ccc(Cl)cc3)CC3CCC2N3C)c1 (stereo not drawn) [RTI-4229-203]	2740	9.37	–	2150	–
Cc1ccccc1OC(=O)C1C(c2ccc(Cl)cc2)CC2CCC1N2C (stereo not drawn) [RTI-4229-204]	4780	3.91	–	3770	–
Cc1ccc(C2CC3CCC(C2C(=O)Oc2cccc(C)c2)N3C)cc1 (stereo not drawn) [RTI-4229-205]	2140	8.19	–	5240	–
Cc1ccc(OC(=O)C2C(c3ccc(Cl)cc3)CC3CCC2N3C)cc1 (stereo not drawn) [RTI-4229-206]	1280	27.4	–	1200	–
CN1C2CCC1C(C(=O)N1CCCCOCC1)C(c1ccc(Cl)cc1)C2 (stereo not drawn) [RTI-4229-214]	8550	2.9	88800	–	–
C=C(C)C1C(c2ccc(Cl)cc2)CC2CCC1N2C (stereo not drawn) [RTI-4229-230]	141	1.26	57.4	–	IC50 [1, 11]: 141 ± 18 nM; IC50 (dopamine transporter [2]; [12]): 1.28 ± 0.17 nM; IC50 (serotonin transporter; [13]): 57 ± 50 nM
Cc1ccc(C2CC3CCC(C2C(C)C)N3C)cc1 (stereo not drawn) [RTI-4229-239]	35.6	0.61	114	–	IC50 [1, 11]: 35.6 ± 2.57 nM; IC50 (dopamine transporter [2]; [12]): 0.61 ± 0.07 nM; IC50 (serotonin transporter; [13]): 114 ± 3.69 nM
CC(C)C1C(c2ccc(Cl)cc2)CC2CCC1N2C (stereo not drawn) [RTI-4229-240]	84.5	1.38	38.4	–	IC50 [1, 11]: 84.5 ± 3.09 nM; IC50 (dopamine transporter [2]; [12]): 1.38 ± 0.03 nM; IC50 (serotonin transporter; [13]): 38.4 ± 2.31 nM
COC(=O)CC1C(c2ccc(C)cc2)CC2CCC1N2C (stereo not drawn) [RTI-4229-241]	124	1.02	618	–	IC50 [1, 11]: 124 ± 3.56 nM; IC50 (dopamine transporter [2]; [12]): 1.02 ± 0.06 nM; IC50 (serotonin transporter; [13]): 618 ± 28 nM
COC(=O)C1CN2C3CCC2C(C1=O)C(c1ccc(Cl)cc1)C3 (stereo not drawn) [RTI-4229-242]	–	–	227	–	IC50 [1, 14]: 510 nM; IC50 (dopamine transporter [2]; DA=[3H]WIN 35,428, read-out: DA IC50 for inhibition of radioligand binding): 7.57 nM
O=C1CCN2C3CCC2C1C(c1ccc(Cl)cc1)C3 (stereo not drawn) [RTI-4229-243]	–	129	156	–	IC50 [1, 14]: 540 nM
CCOC(=O)CN1C2CCC1C(C(=O)OC)C(c1ccc(Cl)cc1)C2 (stereo not drawn) [RTI-4229-251]	114	1.93	10.1	–	–
COC(=O)CCN1C2CCC1C(C(=O)OC)C(c1ccc(Cl)cc1)C2 (stereo not drawn) [RTI-4229-252]	125	2.56	35.2	–	–
Fc1ccc(C2CC3CCC(N3)C2COc2ccc3c(c2)OCO3)cc1 (stereo not drawn) [RTI-4229-274]	14.4	3.96	5.62	–	–
CN1C2CCC1C(C(=O)Oc1ccccc1)C(c1ccc([N+](=O)[O-])cc1)C2 (stereo not drawn) [RTI-4229-277]	5700	5.94	2910	–	–
COC(=O)C1C2CCC(CC1c1ccc(C)c(I)c1)N2 (stereo not drawn) [RTI-4229-279]	74.3	5.96	1.06	–	IC50 ([1]; read-out: IC50 NE [3H] Nisoxetine, Table III): 74.3 ± 3.8 nM; IC50 (dopamine transporter [2]; read-out: IC50 DA [3H] WIN 35,428, Table III): 5.98 ± 0.48 nM; IC50 (serotonin transporter; IC50 5-HT [3H] Paroxetine, Table III): 1.06 ± 0.39 nM

Reference: patent publication US6706880B2 (Research Triangle Institute, priority 1990, dated 2004)
